According to article PMC3742170, “Enzymatic Properties of Populus α- and β-NAD-ME Recombinant Proteins” (International Journal of Molecular Sciences, 2013):

B1: PtNAD-ME3 (Populus trichocarpa) (protein)
chain: TAAIPAPCIIHKRGTDILHDPWFNKDTGFPLTERDRLGLRGLLPPRVISFEQQYDRFMESYRSLEKNTQGQPYSVVSLAKWRILNRLHDRNETLYYRVLIDNIKDFAPIIYTPTVGLVCQNYSGLFRRPRGMYFSAKDKGEMMSMIYNWPAQQVDMIVLTDGSRILGLGDLGVQGIGIPIGKLDMYVAAAGINPQKILPVMLDVGTNNQKLLEDPLYLGLRQPRLEGEEYLSIVDEFMEAVHTRWPKAIVQFEDFQMKWAFETLQRYRKRFCMFNDDIQGTAGVALAGLLGTVRAQGLPLSDFVNQKIVVVGAGSAGLGVLNMAIQALSRMSGNNEMAAKNKCYLLDKDGLITKERKNIDPAAAPFAKDLKDVEGLREGASPFEVVKKLKPHVLLGLSGVGGVFNEEVLKAMRESDSTKPAIFAMSNPTMNAECTAADAFKYAGPNIIFGSGSPFEDVDLGNGKVGHVNQANNMYLFPGIGLGTLLSGAHIITDGMLQAAAECLASYMTDEEIQNGILYPSIDSIRHITAEVGAAVLRAAVEEDLAEGHGEAGPRELKHMSKAETVAYVSRNMWFPVYSPLVHEK
notes: mature form without mitochondrial signal peptide; pGEX-6p-3, N-terminal GST cut with PreScission; E. coli BL21; about 61 kDa on SDS-PAGE

How the values were obtained:
[1] = molecular target: T1, PtNAD-ME3 (Populus trichocarpa, UniProt B9GPX3); experiment: inhibition of malate decarboxylation, NADH at […] nm; assay type: biochemical; settings: inhibitor; nonsaturating malate, saturating NAD, optimum pH 7.4
T1 construct: gene POPTR_002G156000; mature form without mitochondrial signal peptide; pGEX-6p-3, N-terminal GST cut with PreScission; E. coli BL21; about 61 kDa on SDS-PAGE
T1 sequence (B9GPX3 23-607): B1 chain

[2] = molecular target: T2, PtNAD-ME2 (Populus trichocarpa, UniProt B9MVC4); experiment: inhibition of malate decarboxylation, NADH at […] nm; assay type: biochemical; settings: inhibitor; nonsaturating malate, saturating NAD, optimum pH 7.2
T2 construct: gene POPTR_014G043700; mature form without mitochondrial signal peptide; pGEX-6p-3, N-terminal GST cut with PreScission; E. coli BL21
T2 sequence (B9MVC4 36-627): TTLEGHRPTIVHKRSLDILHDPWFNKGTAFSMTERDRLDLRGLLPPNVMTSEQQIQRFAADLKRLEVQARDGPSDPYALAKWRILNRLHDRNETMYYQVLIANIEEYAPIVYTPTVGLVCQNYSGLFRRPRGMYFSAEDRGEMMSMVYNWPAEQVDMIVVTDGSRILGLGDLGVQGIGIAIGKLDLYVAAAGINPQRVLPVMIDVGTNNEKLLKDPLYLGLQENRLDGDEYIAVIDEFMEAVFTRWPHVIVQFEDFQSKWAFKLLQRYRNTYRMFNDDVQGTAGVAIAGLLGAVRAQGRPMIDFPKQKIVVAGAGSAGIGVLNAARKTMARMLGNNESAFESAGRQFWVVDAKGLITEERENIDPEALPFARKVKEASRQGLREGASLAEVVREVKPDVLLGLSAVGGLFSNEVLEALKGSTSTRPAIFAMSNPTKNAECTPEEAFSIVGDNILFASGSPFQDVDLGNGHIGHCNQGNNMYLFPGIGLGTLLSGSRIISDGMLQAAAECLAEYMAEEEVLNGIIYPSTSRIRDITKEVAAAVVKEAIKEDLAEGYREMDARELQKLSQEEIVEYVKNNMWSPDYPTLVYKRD

[3] = molecular target: T3, PtNAD-ME1 (Populus trichocarpa, UniProt A0ACC0TE46); experiment: inhibition of malate decarboxylation, NADH at […] nm; assay type: biochemical; settings: inhibitor; nonsaturating malate, saturating NAD, optimum pH 7.2
T3 construct: gene POPTR_002G135300v4; mature form without mitochondrial signal peptide; pGEX-6p-3, N-terminal GST cut with PreScission; E. coli BL21; about 67 kDa on SDS-PAGE; EC 1.1.1.39
T3 sequence (A0ACC0TE46 34-627): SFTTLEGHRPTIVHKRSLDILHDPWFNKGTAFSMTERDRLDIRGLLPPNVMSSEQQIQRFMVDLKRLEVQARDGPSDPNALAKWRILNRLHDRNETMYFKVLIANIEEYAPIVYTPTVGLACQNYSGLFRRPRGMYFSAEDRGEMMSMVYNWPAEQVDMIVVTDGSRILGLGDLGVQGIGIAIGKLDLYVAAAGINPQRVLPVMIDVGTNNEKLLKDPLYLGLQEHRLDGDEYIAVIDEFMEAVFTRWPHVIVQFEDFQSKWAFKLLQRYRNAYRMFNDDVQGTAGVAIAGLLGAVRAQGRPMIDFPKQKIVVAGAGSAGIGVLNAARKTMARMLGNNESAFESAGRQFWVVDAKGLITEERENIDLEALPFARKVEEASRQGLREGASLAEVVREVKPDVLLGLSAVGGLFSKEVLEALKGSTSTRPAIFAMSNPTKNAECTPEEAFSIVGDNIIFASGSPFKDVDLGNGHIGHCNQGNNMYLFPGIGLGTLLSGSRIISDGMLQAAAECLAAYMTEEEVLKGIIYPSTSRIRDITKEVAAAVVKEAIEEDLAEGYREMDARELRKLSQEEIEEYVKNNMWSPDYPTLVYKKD

[4] = molecular target: T4, PtNAD-ME4 (Populus trichocarpa, UniProt A0A2K1XS69); experiment: inhibition of malate decarboxylation, NADH at […] nm; assay type: biochemical; settings: inhibitor; nonsaturating malate, saturating NAD, optimum pH 7.4
T4 construct: gene POPTR_014G079900; mature form without mitochondrial signal peptide; pGEX-6p-3, N-terminal GST cut with PreScission; E. coli BL21
T4 sequence (A0A2K1XS69 22-607): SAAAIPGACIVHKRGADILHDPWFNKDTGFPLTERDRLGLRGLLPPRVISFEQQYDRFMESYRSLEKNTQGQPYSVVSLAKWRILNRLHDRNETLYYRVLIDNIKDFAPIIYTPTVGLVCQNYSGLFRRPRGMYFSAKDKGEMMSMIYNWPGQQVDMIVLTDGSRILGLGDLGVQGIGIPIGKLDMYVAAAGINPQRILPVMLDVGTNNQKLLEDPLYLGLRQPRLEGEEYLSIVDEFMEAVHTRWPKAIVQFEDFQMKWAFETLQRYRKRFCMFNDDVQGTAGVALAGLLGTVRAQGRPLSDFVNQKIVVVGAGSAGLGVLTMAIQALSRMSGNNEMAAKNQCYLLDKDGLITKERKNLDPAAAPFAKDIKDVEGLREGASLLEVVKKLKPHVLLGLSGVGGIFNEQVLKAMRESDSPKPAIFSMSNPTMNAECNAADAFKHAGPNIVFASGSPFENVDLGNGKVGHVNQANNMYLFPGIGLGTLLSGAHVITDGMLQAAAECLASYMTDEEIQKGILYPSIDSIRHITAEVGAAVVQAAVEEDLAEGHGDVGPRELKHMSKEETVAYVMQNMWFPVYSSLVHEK

[5] = substrate: O=C(O)C[C@H](O)C(=O)O; experiment: purified protein; assay type: biochemical, Populus trichocarpa; settings: saturating NAD, 10 mM MnCl2, 150 mM Mes/NaOH, optimum pH 7.4
[6] = substrate: NC(=O)c1ccc[n+]([C@@H]2O[C@H](COP(=O)(O)OP(=O)(O)OC[C@H]3O[C@@H](n4cnc5c(N)ncnc54)[C@H](O)[C@@H]3O)[C@@H](O)[C@H]2O)c1; experiment: purified protein; assay type: biochemical, Populus trichocarpa; settings: saturating malate, 10 mM MnCl2, 150 mM Mes/NaOH, optimum pH 7.4

Row | Molecule | % activity [1] | % activity [2] | % activity [3] | % activity [4] | Km [5] [µM] | Km [6] [µM] | kcat [6] [s⁻¹] | kcat/Km [6] [M⁻¹ s⁻¹]
1 | O=C(O)CC(O)(CC(=O)O)C(=O)O [citrate] | OAA and citrate inhibited the activities of all | OAA and citrate inhibited the activities of all | OAA and citrate inhibited the activities of all | OAA and citrate inhibited the activities of all | – | – | – | –
2 | O=C(O)CC(=O)C(=O)O [oxalacetate] | OAA and citrate inhibited the activities of all | OAA and citrate inhibited the activities of all | OAA and citrate inhibited the activities of all | OAA and citrate inhibited the activities of all | – | – | – | –
3 | B1 | – | – | – | – | 1300 | 450 | 1.3 | 2900
